Several values for one entry are separate records, joined by “and”; a condition that tells them apart may be missing. Equal entries are not always repeated. Entries after “also recorded” stand apart in the source; their conditions may differ. Where a SMILES comes first, the peptide text is derived from it. The star is where a group is joined. 5FAM = O=C1OC2(c3ccc(O)cc3Oc3cc(O)ccc32)c2ccc(C(=O)*)cc21
What was measured:
[1] = Blood-brain barrier permeability of fluorescent analogues; format: in vivo, mice; conditions: 5-FAM-labeled, 3 nmol/g i.v., 2 hours after injection, unmanipulated mice
Method: VI.ii. Blood-brain Barrier Permeability. […] After injection of the compounds, the mice are perfused with paraformaldehyde and the brains are carefully removed, post-fixed in paraformaldehyde, processed into coronal sections, and quantified for fluorescence (Example 8).
The fluorescent ligands were injected intravenously (3 nmol/g) and the location of the ligands was detected by fluorescence microscopy of coronal brain slices (n=8) mice, was evaluated 2 hours after injection. Two sections of the brain, prior to and two after the anterior commissure (n=5), were selected for BBB permeability analysis. The anterior commissure (Bregma: −0.3) was used as a fix point in the brain in order to analyse anatomically identical brain sections. The intensity of the 5-FAM fluorophore was measured semi-quantitatively using a fluorescence microscopy system (Olympus System Microscope model BX-51, Denmark) with a 10× objective (Olympus 10×/0.15 UPlanApo) connected to a high-resolution microscope digital camera (Olympus model DP70), which transferred images to an image-capturing software (Image Pro Plus software). All images were taken using the same microscope settings and with constant camera exposure time. Intensities were quantified using the ImageJ software.
5-FAM-labeled derivative of Tat-NR2B9c is designated MS23. After injection of the compounds, the mice are perfused with paraformaldehyde and the brains are carefully removed, post-fixed in paraformaldehyde, processed into coronal sections, and quantified for fluorescence.
C57BL/6 mice with 6 hour post-surgical survival time were euthanized by cervical dislocation. C57BL/6 mice with 48 hour post-surgical survival were anesthetized with an overdosed of pentobarbital (the pharmacy of the Faculty of Life Sciences, University of Copenhagen, Denmark) in order to collect blood and tissue samples. All brains were carefully removed, frozen in gaseous CO2 and cut into 6 series of 30 μm coronal cryostat sections and stored at −80° C. until further use. C57BL/6J mice used to investigate the blood-brain barrier (BBB) permeability of AB143, AB145, AB148, and MS23 were deeply anesthetized and perfused through the left ventricle, using 10 ml chilled Soerensens phosphate buffer (SB) ([…], 125 mM Na2HPO4, pH 7.4) followed by 20 mL SB containing 4% paraformaldehyde (PFA). The brains were carefully removed and post-fixed in 4% PFA for 1 hour followed by immersion in SB containing 20% sucrose over night. The brains were frozen on gaseous CO2 and processed into 16 μm coronal cryostat sections.

[2] = Spinal cord detection of fluorescent PSD-95 inhibitors; format: in vivo, mice; conditions: 30 mg/kg i.p., 30 min after injection
Method: To investigate if AB143 and AB145 are able to enter spinal cord tissue, they were administered to the mice by intraperitoneal injection (30 mg/kg). The drug-treated mice were decapitated 30 min after injection, and the spinal cord was carefully dissected out, to which 5% trichloroacetic acid (TCA) (300 μL per 0.1 g tissue) was added and the tissue homogenized with an ultrasonic homogenizer (on ice). The homogenated tissue was vortexed and centrifuged for 10 min (20000 g at 4° C.). The supernatant was transferred to a test tube and evaporated, and the residue was reconstituted in water and its fluoresence intensity was determined by using a fluorescence plate reader (excitation/emission:470/525 nm). For quantification of the compounds, a standard curve was prepared by spiking a known amount of AB143 and AB145 into spinal cord tissue from control mice prior to homogenization, followed by work-up and analysis similar to the drug-treated mice.

[3] = tested on: pMCAO model of ischemic stroke; test: Grip strength after pMCAO; format: in vivo, mice; conditions: 48 hours after pMCAO, 3 nmol/g i.v.
Method: The grip strength meter (BIO-GT-3, BIOSEB) allows the study of neuromuscular functions in mice by determining the maximum force that is required to make the mouse release its grip. The grip strength in individual paws was used to measure the severity of the pMCAO-induced asymmetry. The mouse is allowed to grasp a metal grid and then pulled backwards in the horizontal plane. The force applied to the grid is recorded as the peak tension. The strength of individual front paws and the total grip strength (both paws simultaneously) were measured before (baseline) and after pMCAO. Each mouse is tested in 5 sequential trials and the highest grip strength is recorded as the best score.

[4] = tested on: pMCAO model of ischemic stroke; test: Rotarod performance test after pMCAO; format: in vivo, mice; conditions: 48 hours after pMCAO
Method: The rotarod (LE 8200, Panlab) is well suited to evaluate motor activity in rodents, experimental compound effects on central nervous system damage, or disease effects on motor coordination, assessed by the time during which the animal remains walking in a rotating drum. The rotation of the rotarod is motor drived and accelerates from 0 to 40 rounds per min (rpm) over a time period of 5 min, at which time all mice have fallen off the rod. All mice were tested in 4 repeating trials with a 20 min interval (resting time). Prior to surgery mice were pre-trained to stay on the rod for 30 seconds, at 4 rpm.

[5] = Human blood plasma stability assay; format: in vitro ADME
Method: Ligands (dimeric PSD-95 inhibitors) for the PDZ domain of PSD-95 were dissolved in human blood plasma (270 μL; 3H Biomedical, Sweden, cat no 1300-1-P50) to a concentration of 0.25 mM (30 μL, of 2.5 mM) and incubated at 37° C. Aliquots (30 μL) were removed at various time intervals (e.g. 0, 5, 10, 20, 40, 80, 160, 320, 960, 1280, 2550, 4560 and 7240 min) and quenched with 60 μL, trichloroacetic acid (aq., 5%). The aliquots were vortexed, and incubated 15 min, at 4° C. prior to centrifugation at 18,000 g for 2 min. The supernatants were analyzed by analytical RP-HPLC (UV218) to quantify compound relative to time zero, and also evaluated qualitatively by ESI-LC/MS in order to identify the compound (m/z) in the sample. Procaine (positive control) and procainamide (negative control) were investigated at 50 μM to validate the procedure. Ligand recoveries following the precipitation procedure were between 85-95%.

[6] = Physiological status of pMCAO mice (blood values, body weight, temperature, survival); format: in vivo; conditions: mouse, in vivo
Method: The physiological status of the mice was carefully monitored prior to and during pMCAO surgery in order to exclude the observed effects of treatment with dimeric PSD-95 inhibitors being due to secondary conditions (e.g. disease-related) resulting from the experimental procedure.
9.10 Body weight monitoring: The body weight of each mouse was registered during pre-training, before surgery, and at 24 and 48 hours after surgery and no differences were seen between the treatment groups (FIG. 13).
9.11 Temperature monitoring: The rectal temperature of the mouse was continuously measured using a thermocoupled probe connected to a Model Bat 12 unit (Physitemp). The temperature was measured prior to and 30 min after pMCAO in addition to 30 min and 2.5 hours after i.v. injection, i.e. 1 and 3 hours after pMCAO.
9.12 Blood gas analysis: One samples of venous blood was taken for blood gas analysis of PO2/PCO2 electrolytes, glucose, lactate, and hematocrit, 30 min after compound administration (1 hour after pMCAO). A capillary heparin coated tube was inserted along the inner corner of eye and turned until it penetrated the conjunctiva. A sample of blood (150 μl) was collected and stored on ice until gas analysis using the GEM Premier 300 blood gas instrument (Instrumentation Laboratory) Quality controls (QC ContrlIL9) were purchased from IL Sensor Systems. Also, no differences were detected in blood gas parameters (PO2/PCO2, pH, electrolytes, glu/lac), which were similar between the groups and within normal range, when compared to unmanipulated control mice (Table 4).

With `CC[C@H](C)[C@H](NC(=O)CCOCCOCCN(CCOCCOCCC(=O)N[C@H](C(=O)N[C@@H](CCC(=O)O)C(=O)N[C@H](C(=O)N[C@@H](CC(=O)O)C(=O)N[C@H](C(=O)O)C(C)C)[C@@H](C)O)[C@@H](C)CC)C(=O)[C@H](CCCNC(=N)N)NC(=O)[C@H](CCCNC(=N)N)NC(=O)[C@H](CCCNC(=N)N)NC(=O)[C@H](CCC(N)=O)NC(=O)[C@H](CCCNC(=N)N)NC(=O)[C@H](CCCNC(=N)N)NC(=O)[C@H](CCCCN)NC(=O)[C@H](CCCCN)NC(=O)[C@H](CCCNC(=N)N)NC(=O)CNC(=O)[C@H](Cc1ccc(O)cc1)NC(=O)c1ccc2c(c1)C(=O)OC21c2ccc(O)cc2Oc2cc(O)ccc21)C(=O)N[C@@H](CCC(=O)O)C(=O)N[C@H](C(=O)N[C@@H](CC(=O)O)C(=O)N[C@H](C(=O)O)C(C)C)[C@@H](C)O` [AB145, F-Tat-NPEG4(IETDV)2] as the compound, how does the “entry into brain, fluorescence microscopy of coronal brain slices” value [1] read?
The value was “enter the brain; also recorded: Detection”.

And the “fluorescence in spinal cord tissue compared to saline-treated mice” value [2]?
The value was “clear and distinct fluorescence increase”.

And the “concentration in spinal cord, Average ± SEM” value ([2]; mice)?
Its value is 0.074 nmol/g and 0.074 ± 0.022 nmol/g.

What about the “concentration in spinal cord, individual samples” value ([2]; mice) of the same compound?
Its value is 0.035 nmol/g and 0.132 nmol/g and 0.108 nmol/g and 0.084 nmol/g and 0.012 nmol/g.

With `CC[C@H](C)[C@H](NC(=O)CCOCCOCCN(CCOCCOCCC(=O)N[C@H](C(=O)N[C@@H](CCC(=O)O)C(=O)N[C@H](C(=O)N[C@@H](CC(=O)O)C(=O)N[C@H](C(=O)O)C(C)C)[C@@H](C)O)[C@@H](C)CC)C(=O)[C@@H](CCCNC(=N)N)NC(=O)[C@@H](CCCCN)NC(=O)[C@@H](CCCCN)NC(=O)[C@@H](CCCNC(=N)N)NC(=O)[C@@H](CCCNC(=N)N)NC(=O)[C@@H](CCC(N)=O)NC(=O)[C@@H](CCCNC(=N)N)NC(=O)[C@@H](CCCNC(=N)N)NC(=O)[C@H](N)CCCNC(=N)N)C(=O)N[C@@H](CCC(=O)O)C(=O)N[C@H](C(=O)N[C@@H](CC(=O)O)C(=O)N[C@H](C(=O)O)C(C)C)[C@@H](C)O` [AB147, Retroinverso-D-Tat-NPEG4(IETDV)2] as the compound, how does the “grip strength asymmetry between right and left front paw” value [3] read?
Its value is “no asymmetry and not”.

What about the “total grip strength (both paws) compared to baseline” value [3] of the same compound?
The value was “no significant change in total grip strength; also recorded: No difference compared to baseline”.

And the “total time spent on the rod” value ([4]; 3 nmol/g i.v., four trials)?
The value was 92.6 ± 4.5 s.

And the “short term learning skill improvement on rotarod compared to saline” value ([4]; trials T1-T4)?
The value was “more pronounced short term learning skill improvement”.

What about the “degradation in human blood plasma” value [5] of the same compound?
The value was “No detectable degradation”.

What about the Hct [6] of the same compound?
The Hct was 41.3 ± 0.6%.

And the “[Ca2+]” value [6]?
Its value is 1.31 ± 0.01 mmol/L.

What about the “[K+]” value [6] of the same compound?
The value was 5.1 ± 0.18 mmol/L.

And the “[Lactate]” value [6]?
The value was 0.90 ± 0.05 mmol/L.

What about the “[Na+]” value [6] of the same compound?
Its value is 147 ± 0.5 mmol/L.

What about the pCO2 [6] of the same compound?
The pCO2 was 104 ± 2.5 mmHg.

And the pO2 [6]?
The pO2 was 56.4 ± 2.9 mmHg.

Which half-life at 0.25 mM ([5]; human, human blood plasma, 0.25 mM, 37° C., in vitro, read-out: half-life (T1/2) in human blood plasma) does the source give for `CC[C@H](C)[C@H](N)C(=O)N[C@@H](CCC(=O)O)C(=O)N[C@H](C(=O)N[C@@H](CC(=O)O)C(=O)N[C@H](C(=O)O)C(C)C)[C@@H](C)O` [IETDV, reference compound] here?
The half-life at 0.25 mM was 37 ± 6 min.

Which “entry into brain, fluorescence microscopy of coronal brain slices” value [1] does the source give for `CC[C@H](C)[C@H](NC(=O)[C@H](CO)NC(=O)[C@H](CO)NC(=O)[C@H](CC(C)C)NC(=O)[C@H](CCCCN)NC(=O)[C@H](CCCNC(=N)N)NC(=O)[C@H](CCCNC(=N)N)NC(=O)[C@H](CCCNC(=N)N)NC(=O)[C@H](CCC(N)=O)NC(=O)[C@H](CCCNC(=N)N)NC(=O)[C@H](CCCNC(=N)N)NC(=O)[C@H](CCCCN)NC(=O)[C@H](CCCCN)NC(=O)[C@H](CCCNC(=N)N)NC(=O)CNC(=O)[C@H](Cc1ccc(O)cc1)NC(=O)c1ccc2c(c1)C(=O)OC21c2ccc(O)cc2Oc2cc(O)ccc21)C(=O)N[C@@H](CCC(=O)O)C(=O)N[C@@H](CO)C(=O)N[C@@H](CC(=O)O)C(=O)N[C@H](C(=O)O)C(C)C` [MS23, F-Tat-NR2B9c, reference compound] (5FAM-YGRKKRRQRRRKLSSIESDV-OH) here?
The value was “Detection”.

Reference: US9139615B2, “High-affinity, dimeric inhibitors of PSD-95 as efficient neuroprotectants against ischemic brain damage and for treatment of pain” (University of Copenhagen, priority 2011, dated 2015)
